In US20100197611A1, “ALTERNATIVE AGENT WITH VITAMIN D-LIKE ACTIVITY AND AN IMPROVING AGENT FOR INTESTINAL FUNCTION” (priority 2003, published 2010):

What was measured:
24-hydroxylase gene = 24-hydroxylase gene expression (mRNA, RT-PCR) in Caco-2 cells; assay type: cell-based; details: 72 hours, 1 mmol/L glucose 1-phosphate sodium salt or 10 nmol/L 1α,25-dihydroxyvitamin D, FIG. 2
Excerpt: (§1) As a target cell of 1α,25-dihydroxyvitamin D and a sugar-phosphate ester, Caco-2 cells (from Dainippon Pharmaceutical Co. Ltd.) were employed. Caco-2 cells are known to differentiate to epitherial-like cells of small intestine. The Caco-2 cells were suspended in culture medium (10% fetal calf serum, none essential amino acids for MEM, […]/MEM Earle) and added to an insert of a fibrillar collagen culture plate (from Becton Dickinson Inc.). To the plate also, the culture medium was added, and cultured according to a usual method. The media in the insert and the plate were renewed at a regular interval, and the culture was subjected to a test at 15 days of incubation.

CaT1 gene = CaT1 gene expression (mRNA, RT-PCR) in Caco-2 cells; assay type: cell-based; details: 72 hours, 1 mmol/L glucose 1-phosphate sodium salt or 10 nmol/L 1α,25-dihydroxyvitamin D, FIG. 3
Excerpt: as §1

calbindin D9K = test: Intestinal calbindin D9K expression in aged rats (Western blotting); assay type: in vivo; details: aged rats (9 month, male, SD-IGS), 1.9% by weight in feed for 10 days, compared to control group; FIG. 4
Excerpt: On 10 days after the test started, rats were made starved by fasting for all day and night, then the small intestines were taken out, followed by extraction, immediate opening of the intestinal canal and stripping off the epitherial mucous membrane to prepare protein extract samples according to the method described by H. J. Armbrecht et al. (Am. J. Physiol., 236(6), e769-e774, 1979). These samples were separated by SDS-PAGE, followed by transferring on PVDF membrane (IPVH, pore size of 0.45, Millipore) in accordance with a usual procedure and assaying of calbindin D9K by the Western blotting method. Rabbit anti-calbindin D9K antibody (from Research Diagnostic Inc.) as the primary antibody and HRP anti-rabbit IgG (Bio-Rad) as the secondary antibody were used, and detected using ECL Plus kit (Bio-Rad). The detected protein bands were further quantified using Scion Image-analyzing software (from Scion Corp.).

Molecule: 1α,25-dihydroxyvitamin D
- gene expression of 24-hydroxylase (mRNA amount divided by housekeeping gene G3PDH) (24-hydroxylase gene): significantly enhanced
- gene expression of CaT1 (mRNA amount divided by housekeeping gene G3PDH) (CaT1 gene): significantly enhanced

Molecule: O=P([O-])([O-])O[C@H]1O[C@H](CO)[C@@H](O)[C@H](O)[C@H]1O.[Na+].[Na+] [glucose 1-phosphate sodium salt]
- expression of calbindin D9K in small intestine (calbindin D9K): significantly enhance
